# Data: patent US11793881B2, “Polyethylene glycol conjugate medicament, preparation method therefor and use thereof” (CHONGQING UPGRA BIOTECHNOLOGY CO., LTD., priority 2019, dated 2023)
# Tested on: human breast cancer BT474 cells
# Method: Test sample diluent: a proper amount of PEG300 and absolute alcohol was taken, and sodium chloride injection was added to make that the content of PEG300 and absolute alcohol was 20% (v/v).
# Test samples: 41-32, 41-40 and 39-55 were respectively taken in a proper volume, and a proper amount of each of the test sample diluent was added, to respectively prepare solutions with the concentrations of 8.3 mg/mL, 4.6 mg/mL and 5.5 mg/mL.
# An estrogen sustained-release tablet (17 beta-ESTRADIOL, product No.: SE-121, Innovative Research of America) was embedded under the skin at the neck back of NPG mice before cell inoculation. A BT474 cell suspension with the concentration of 7.5×10^7/mL and a Matrigel Basement membrane Matrix (BD Co.) were mixed according to the volume ratio of 1:1 to obtain a cell suspension with the concentration of 3.75×10^7/mL. 0.2 mL of the cell suspension was inoculated into the right mammary fat pad of the mice. The tumor growth was observed after inoculation, and 36 tumorigenic animals with the tumor volume of 66.83-324.35 mm^3 were finally screened and used for the test.
# The negative control, SB7, 41-32, 41-40 and 39-55 were intravenously injected; LPT was intragastrically administered.
# [1] = end of experiment (D29), doses as in E38
smiles,measurement,setting,value
"CS(=O)(=O)CCNCc1ccc(-c2ccc3ncnc(Nc4ccc(OCc5cccc(F)c5)c(Cl)c4)c3c2)o1 [LPT, Lapatinib]",animals died during the experiment,"6 animals per group, LPT 20 mg/kg i.g. (D19), SB7+LPT 5+5.6 mg/kg (D15, D25)",1
same,average tumor weight,"after euthanasia (D29), doses as in E38",1.226 ± 0.370 g
same,inhibition effect on tumor growth (conclusion),doses as in E38,certain inhibition effects
same,average tumor volume,"end of experiment (D29), LPT 20 mg/kg i.g. and 41-32 83 mg/kg i.v. every 3 days, SB7+LPT 5+5.6 mg/kg, 41-40 46 mg/kg i.v., 39-55 55 mg/kg i.v. one time/week, 4 weeks",1313.80±241.46 mm^3
same,average RTV (relative tumor volume),[1],8.13±2.92
same,relative tumor proliferation rate T/C %,[1],54.27%
same,tumor weight inhibition rate IRTW %,"from tumor weights after euthanasia (D29), b1725, doses as in E38",32.15%
